Assays:
IC-21 macrophages = test: Phagocytosis of Dyn A-coated latex beads by IC-21 macrophages; type: cell-based, murine; conditions: heparin 20 μg/ml, naloxone 10 μM, rat IgG2b isotype control
Protocol: Fig. 8 Effect of Dyn A on phagocytosis of latex beads. a, Fluorescent latex beads (1x10^9/ml) were preincubated with Dyn A (50 μg/ml) for 40 min at 37 °C. Soluble peptide was removed from the beads by high-speed centrifugation. Peptide-coated beads were incubated with adherent IC-21 macrophages for 30 min at 37 °C. Nonphagocytosed beads were removed from cells by washing with PBS. […] Rat IgG2b was used as an isotype control for anti-αM mAb M1/70. Phagocytosis was quantified for five random fields per well using a 20x objective. Phagocytosis of Dyn A-treated beads was assigned as 100 %.
A suspension of fluorescent […] latex beads (1x10^9/ml) (FluoSpheres sulfate microspheres, Life Technologies, Carlsbad, CA) was incubated with 50 μg/ml of Dyn A for 40 min at 37 °C, then unbound peptide was removed by centrifugation. IC-21 murine macrophages (5 × 10^5/ml) were adhered on the cover glass for 30 min and 3 × 10^6 of peptide-coated beads were added to adherent IC-21 cells. After incubating for 30 minutes at 37 °C, nonphagocytosed beads were separated from macrophages by washing with 3x1 ml PBS and phagocytosed beads were counted in the presence of trypan blue. […] The ratio of beads per macrophage was quantified by taking photographs of five fields for each well using a Leica DM4000 B microscope (Leica Microsystems, Buffalo Grove, IL) with a 20 × objective.

Mac-1 = Mac-1 mediated cell adhesion, effect of naloxone; type: cell-based; conditions: control experiments, not shown
U937 monocytic cells = test: Chemotaxis migration assay of U937 cells to Dyn A agarose gel; type: cell-based, human
Protocol: Fig. 7 Chemotactic response of U937 cells to Dyn A. a, schematic representation of the experimental format. U937 cells (5x10^4) were placed in the center of the coverslip between two agar gels, one containing Dyn A and control gel without Dyn A. After 2 h at 37 °C, a series of photographs was taken in the direction of migration at 1-mm intervals to count the number of migrating cells. b , representative images after 2 h of migration show the cells within the starting point (marked with a cross; right panels) and at the border of the Dyn A-containing agar drop (left panels). […] Two bottom panels show the experimental condition with no Dyn A gradient. c, quantification of U937 cells migrated from the initial point after 2 h based on the results shown in A (right panel). Migration of control untreated U937 cells that completely migrated from the initial point of cell placement was assigned a value of 100 %. In contrast, there was no cell migration without a Dyn A gradient (0 %). […] A representative experiment is shown. d, distribution of U937 cells between two gels: Dyn A-containing (on the left) and without Dyn A (on the right). “0” on abscissa corresponds to the initial point where cells were loaded and the numbers show the distance that cells migrated in both directions from the starting point. All cells in each of 10 consecutive fields towards the Dyn A-containing and empty gels were counted and plotted as a distance from the starting point
Chemotaxis assays using U937 monocytic cells were performed on 22 × 22 mm cover slips. 1 % agarose (Life Technologies, Carlsbad, CA) was dissolved in HBSS by heating. After cooling, the agarose solution was mixed with Dyn A to obtain a final concentration of 10 μM. A 10 μl drop of warm agarose solution containing Dyn A was placed at one corner of the cover glass at ~1.5 mm from the edge. A control agarose drop was placed diagonally at the opposite corner of the cover glass. Agarose was allowed to solidify for 5 min, and the cover glasses were placed into wells of the 6-well plate filled with 5 ml of RPMI 1640 + 10 % FBS. A 10-μl aliquot of U937 cells (5x10^4) was loaded in the center of the cover glass and the plate was incubated for 2 h at 37 °C in a humidified atmosphere containing 5 % CO2. In this experimental format, the cells sediment approximately 5 min after loading, forming an ~4 mm circle, and begin to migrate towards the Dyn A-containing agarose drop. […] The photographs were taken at 1-mm intervals in the direction of cell migration towards the dynorphin-containing or control agarose drops without dynorphin A. The number of cells at the starting point and in each of 10 consecutive fields towards the dynorphin-containing and empty gels were counted and plotted as a distance from the starting point.

[1] = tested on: Mac-1 (Mac-1-HEK293 cells); test: Inhibition of adhesion of Mac-1-HEK293 cells to fibrinogen by soluble peptides; type: cell-based, Human; conditions: soluble peptide, 2.5 μg/mL fibrinogen coating
Protocol: Fig. 4 Effect of soluble Dyn A on Mac-1-mediated cell adhesion to fibrinogen. a (left ordinate), calcein-labeled Mac-1-HEK293 cells were preincubated with different concentrations of dynorphin A (black bar), dynorphin B (open bar) or control peptide (gray bar) for […] at 22 °C and added to the wells of microtiter plates coated with 2.5 μg/mL fibrinogen. Cells were allowed to adhere for 30 minutes at 37 °C before removing nonadherent cells. […] Data are expressed as a percentage of total cell fluorescence
Adhesion assays were performed essentially as described previously. […] Cells were labeled with 10 μM calcein for 30 min at 37 °C and washed twice with Hanks’ Balanced salt solution (HBSS) containing 0.1 % BSA. Aliquots (100 μl) of labeled cells (5x10^5/ml) were added to each well and allowed to adhere for 30 min at 37 °C. The non-adherent cells were removed by two washes with PBS. Fluorescence was measured in a CytoFluorII fluorescence plate reader (Perceptive Biosystems, Framingham, MA). In inhibition experiments, cells were mixed with different concentrations of peptides, NIF or mAbs for 20 min at 22 °C before they were added to the wells coated with adhesive substrates. […] After aspirating the solution, labeled cells were added and cell adhesion was analyzed as above.

[2] = molecular target: T1, Mac-1 (Mac-1-expressing HEK293 cells) (Homo sapiens, UniProt P05107+P11215); test: Adhesion of Mac-1-HEK293 cells to immobilized peptide; type: cell-based; conditions: coated wells, calcein-labeled cells, 30 min at 37 °C
T1 construct: expressed in transfected cells
Protocol: (§1) For testing the role of glucosaminoglycans in cell adhesion, dynorphin A-coated wells were preincubated with 100 μl of 10 μg/ml of chondroitin sulfate A, chondroitin sulfate B and heparin. Aliquots (5x10^4cells) were added to the wells coated with 2 μM dynorphin A and adhesion was performed as described in A. Adhesion in the absence of Mac-1 inhibitors and glucosaminoglycans was assigned a value of 100 %. The data shown are the means ± S.E. from four separate experiments each with triplicate measurements. d , microtiter plate wells were coated with different concentrations of dynorphin B and adhesion of Mac-1-expressing and wild-type HEK293 cells was determined as described in A. The data shown are means of triplicate determinations, and error bars represent S.E. The figure is representative of 5 experiments. e. calcein-labeled Mac-1-HEK293 cells were preincubated without or with 10 μg/ml of mAb 44a and heparin, added to the wells coated with 20 μM of dynorphin B and adhesion was performed as described in A. Adhesion in the absence of inhibitors was assigned a value of 100 %.
(§2) Adhesion assays were performed essentially as described previously. […] Cells were labeled with 10 μM calcein for 30 min at 37 °C and washed twice with Hanks’ Balanced salt solution (HBSS) containing 0.1 % BSA. Aliquots (100 μl) of labeled cells (5x10^5/ml) were added to each well and allowed to adhere for 30 min at 37 °C. The non-adherent cells were removed by two washes with PBS. Fluorescence was measured in a CytoFluorII fluorescence plate reader (Perceptive Biosystems, Framingham, MA). In inhibition experiments, cells were mixed with different concentrations of peptides, NIF or mAbs for 20 min at 22 °C before they were added to the wells coated with adhesive substrates. In a separate set of experiments, after coating plates with dynorphins and post-coating with 1 % PVP, plates were incubated with 100 μl of 10 μg/ml chondroitin sulfate A, chondroitin sulfate B, or heparin for 20 min at 22 °C. After aspirating the solution, labeled cells were added and cell adhesion was analyzed as above.

αMI-domain = αMI-domain binding to cellulose-bound peptide libraries (SPOT, autoradiography, densitometry); conditions: for Densitometry, % (αMI-domain binding): 9-mer peptides, 3-residue offset, N-acetylated, cellulose-bound via (β-Ala)2, 10 μg/ml 125I-labeled αMI-domain (active form), TBS 1 mM MgCl2, percentage of binding to peptide #1 (100 %); for αMI-domain binding (in words): cellulose-bound 9-mer libraries, 125I-labeled αMI-domain
Protocol: Fig. 1 Screening of the peptide library spanning the sequence of dynorphin AB for αMI-domain binding. a, Amino acid sequence of dynorphin AB (residues 1–32). b, Cellulose membrane with the assembled peptide library consisting of 9-mer peptides with three-residue offset was incubated with ^125I-labeled αMI-domain and subjected to autoradiography followed by densitometry. The αMI-domain binding was observed as dark spots. Spot #10 contains only the β-Ala spacer. The αMI-domain binding was expressed as a percentage of binding to peptide #1, which was assigned a value 100 % and is shown as the numbers on the right of each sequence. The peptide energies that serve as a measure of probability each peptide can interact with the αMI-domain were calculated as described TEXT PRINTED IN THE PICTURE: (B) 1 ([…]): Densitometry, %: 100; Energy, J/mole: -13824 | (B) 2 ([…]): Densitometry, %: 100; Energy, J/mole: -17197 | (B) 3 ([…]): Densitometry, %: 75; Energy, J/mole: -9119 | (B) 4 ([…]): Densitometry, %: 60; Energy, J/mole: -650 | (B) 5 ([…]): Densitometry, %: 40; Energy, J/mole: -2880 | (B) 6 ([…]): Densitometry, %: 90; Energy, J/mole: -5355 | (B) 7 ([…]): Densitometry, %: 90; Energy, J/mole: -12541 | (B) 8 ([…]): Densitometry, %: 100; Energy, J/mole: -12344 | (B) 9 ([…]): Densitometry, %: 100; Energy, J/mole: -9738 | (B) 10 (β-alanine control): Densitometry, %: 0 | (B) Control peptide ([…]): Energy, J/mole: 11107
Peptide libraries derived from dynorphin AB assembled on cellulose membrane supports were prepared by parallel spot synthesis as previously described. Peptides were COOH-terminally attached to cellulose via a (β-Ala)2 spacer and were acetylated N-terminally. The membrane-bound peptides were tested for their ability to bind the αMI-domain according to a previously described procedure. In brief, the membrane was blocked with 1 % BSA and then incubated with 10 μg/ml of ^125I-labeled αMI-domain in TBS containing 1 mM MgCl2. After washing, the membrane was dried and the αMI-domain binding was visualized by autoradiography.
Additional file 1: Figure S1. Identification of residues in dynorphin A critical for α MI-domain binding. The dynorphin AB-based substitutional peptide libraries with single, double or triple mutations of basic residues were prepared by SPOT synthesis as described in Experimental Procedures. Mutated amino acid residues are shown in red. The membranes with synthesized peptide libraries were incubated with ^125I-labeled α MI-domain and subjected to autoradiography. The α MI-domain binding was analyzed by densitometry and expressed in arbitrary units with the strongest binding to wild-type peptides assigning a value of 4+. The peptides that partially lost their ability to bind the α MI-domain were grouped according to their activity and marked as 3+, 2+ and +. The peptides that lost their ability to bind the α MI-domain are marked with “NB “.

[3] = tested on: Mac-1 (Mac-1-HEK293 cells); test: Inhibition of adhesion of Mac-1-HEK293 cells to Dyn A; type: cell-based, Human; conditions: 2 μM Dyn A coating; for Inhibition of adhesion to Dyn A in combination with NIF (in words): glycosaminoglycan 10 μg/ml with NIF; for Inhibition of adhesion to Dyn A (in words): wells preincubated with glycosaminoglycan 10 μg/ml, 20 min, alone
Protocol: as §1, §2

C=CCN1CC[C@]23c4c5ccc(O)c4O[C@H]2C(=O)CC[C@@]3(O)[C@H]1C5 [naloxone]
Effect on Dyn A-mediated phagocytosis (in words) (IC-21 macrophages): did not decrease the number of phagocytosed beads
Effect on Mac-1 mediated cell adhesion (Mac-1): does not affect Mac-1 mediated cell adhesion
Mean distance travelled by inhibitor-treated cells (U937 monocytic cells; Dyn A gradient, 2 h, mAb 44a 20 μg/ml or naloxone 10 μM): ~ 5 mm
Migration from initial point blocked (U937 monocytic cells; mAb 44a 20 μg/ml or naloxone 10 μM, 30 min preincubation, 2 h at 37 °C, representative experiment): ~ 20%
Arrival of inhibitor-treated cells at Dyn A-containing drop (U937 monocytic cells; mAb 44a 20 μg/ml or naloxone 10 μM, 2 h): only a few cells arrived
Cells remaining at the start (U937 monocytic cells; naloxone 10 μM, Dyn A gradient, 2 h): ~ 20%

DIDPKLKWD [control peptide, purchased from AnaSpec; also mutant in substitutional library]
Inhibition of adhesion to fibrinogen (in words) [1]: only slightly inhibitory
Adhesion of Mac-1-HEK293 cells (in words) [2]: failed to support adhesion

FLRRIRPKL
Densitometry, % (αMI-domain binding) (αMI-domain): 100%
αMI-domain binding (in words) (αMI-domain): highest affinities

GFLRRQFKV
Densitometry, % (αMI-domain binding) (αMI-domain): 100%

KWDNQKRYG
Densitometry, % (αMI-domain binding) (αMI-domain): 40%
αMI-domain binding (in words) (αMI-domain): weakened their αMI-domain binding activity

NQKRYGGFL
Densitometry, % (αMI-domain binding) (αMI-domain): 90%

PKLKWDNQK
Densitometry, % (αMI-domain binding) (αMI-domain): 60%
αMI-domain binding (in words) (αMI-domain): weakened their αMI-domain binding activity

RIRPKLKWD
Densitometry, % (αMI-domain binding) (αMI-domain): 75%
αMI-domain binding (in words) (αMI-domain): weakened their αMI-domain binding activity

RRQFKVVGG
Densitometry, % (αMI-domain binding) (αMI-domain): 100%

RYGGFLRRQ
Densitometry, % (αMI-domain binding) (αMI-domain): 90%

YGGFLRRIR
Densitometry, % (αMI-domain binding) (αMI-domain): 100%
αMI-domain binding (in words) (αMI-domain): highest affinities

chondroitin sulfate A
Inhibition of adhesion to Dyn A in combination with NIF (in words) [3]: not exert a statistically significant inhibitory effect
Inhibition of adhesion to Dyn A (in words) [3]: not exert a statistically significant inhibitory effect

chondroitin sulfate B
Inhibition of adhesion to Dyn A in combination with NIF (in words) [3]: not exert a statistically significant inhibitory effect
Inhibition of adhesion to Dyn A (in words) [3]: not exert a statistically significant inhibitory effect

heparin
Effect on Dyn A-mediated phagocytosis (in words) (IC-21 macrophages): did not decrease the number of phagocytosed beads
Inhibition of adhesion to Dyn A (in words) [3]: slight inhibition

Reference: publication PMC4481117 (Molecular Pain, 2015)
